For this assay, the system named is 293T cells. Kind of assay: cells. Format: cell-based. Conditions: Homo sapiens, HEK-293T.

Regarding `CCCCCCCCC(CCCCCC)C(=O)OCCCCCCN(CCCCO)CCCCCCOC(=O)C(CCCCCC)CCCCCCCC` (stereo not shown) [ALC0315], the IC50 – broadly, the concentration at which inhibition is half-maximal – is 145 µM (Table 2-2, 48 hours, CCK8) and 145 µM (Table 4-3, CCK8).

For the molecule `CCCCCCCC/C=C\CCCCCCCC(=O)OC[C@H](C[N+](C)(C)C)OC(=O)CCCCCCC/C=C\CCCCCCCC` [DOTAP, N-(2,3-dioleoyloxy)propyl)-N,N,N-trimethylammonium chloride], the IC50 was 40.7 µM (Table 2-2, 48 hours, CCK8) and 40.7 µM (Table 4-3, CCK8).

The values are drawn from patent EP4570271A1, “METAL-PHOSPHOLIPID COMPLEX, METAL-PHOSPHOLIPID COMPLEX PARTICLE, DRUG-LIPID PARTICLE, METHOD FOR PREPARING SAME, AND USE THEREOF” (priority 2022, dated 2024).
